Assay results as given in the supplement of paper PMC11208160.

assay: recombinant barcode read abundance after kanamycin selection (control-corrected) (log10(CPM+1)); higher = more efficient recombination; sequences stand for … in AGTGCAGAGAAAATCGGCCAGTTTTCTCTGCCTGCAGTCCGCATGCCGT…ATTTATGCAGCGGACTGCCTTTCTCCCAAAGTGATAAACCGGACAGTATCATGGACCGGTTTTCCCGGTAATCCGTATTTGCAAGGTTGGTTTCACT; site = the 11-nt target
Summary of the method: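 In a pooled screen in E. coli, targets were paired with target-binding loops of the IS621 bridge RNA. Each oligo carried a promoter, a target, a barcode and the first 104 bridge RNA bases driven by J23119, and was Gibson-cloned into a vector holding the remaining 73 bp and a T7-inducible recombinase before co-electroporation with a donor plasmid. Duplicate platings went onto chloramphenicol/ampicillin LB agar as the control or onto chloramphenicol/ampicillin/kanamycin with 0.1 mM IPTG. Recombination efficiency is the averaged, control-corrected count per million of barcodes at recombinant junctions, given as log10(CPM+1).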

Row | Sequence | recombinant barcode read abundance (log10)
1 | GAGCCCACCTGGGTTCTAACCTGTTGCCTGG [GAGCCCACTAG_LTGcore_CC_RTGcore_CC] (site GAGCCCACTAG) (LTG core: CC, RTG core: CC) | 0.0451
2 | GAGCCCACGTGGGTTCTAACCTGTTGCCTAG [GAGCCCACTAG_LTGcore_CG_RTGcore_CT] (site GAGCCCACTAG) (LTG core: CG, RTG core: CT) | 0.2
3 | GAGCCCATCTGGGTTCTAACCTGTTGCCTGA [GAGCCCACTAG_LTGcore_TC_RTGcore_TC] (site GAGCCCACTAG) (LTG core: TC, RTG core: TC) | 0.0397
4 | GAGGCCTCATGGGTTCTAACCTGTTGCCATG [GAGGCCTCTTG_LTGcore_CA_RTGcore_CA] (site GAGGCCTCTTG) (LTG core: CA, RTG core: CA) | 0.0323
5 | GAGGCCTCCTGGGTTCTAACCTGTTGCCAAG [GAGGCCTCTTG_LTGcore_CC_RTGcore_CT] (site GAGGCCTCTTG) (LTG core: CC, RTG core: CT) | 0.273
6 | GAGGCCTCGTGGGTTCTAACCTGTTGCCACG [GAGGCCTCTTG_LTGcore_CG_RTGcore_CG] (site GAGGCCTCTTG) (LTG core: CG, RTG core: CG) | 0.169
7 | GAGGCCTCTTGGGTTCTAACCTGTTGCCAGC [GAGGCCTCTTG_LTGcore_CT_RTGcore_GC] (site GAGGCCTCTTG) (LTG core: CT, RTG core: GC) | 0.285
8 | GAGGCCTGATGGGTTCTAACCTGTTGCCATC [GAGGCCTCTTG_LTGcore_GA_RTGcore_GA] (site GAGGCCTCTTG) (LTG core: GA, RTG core: GA) | 0.231
9 | GAGGCCTGCTGGGTTCTAACCTGTTGCCAGC [GAGGCCTCTTG_LTGcore_GC_RTGcore_GC] (site GAGGCCTCTTG) (LTG core: GC, RTG core: GC) | 0.275
10 | GAGGCCTTATGGGTTCTAACCTGTTGCCATA [GAGGCCTCTTG_LTGcore_TA_RTGcore_TA] (site GAGGCCTCTTG) (LTG core: TA, RTG core: TA) | 0.172
11 | GAGTCCAAATGGGTTCTAACCTGTTGCGTAG [GAGTCCACTAC_LTGcore_AA_RTGcore_CT] (site GAGTCCACTAC) (LTG core: AA, RTG core: CT) | 0.0292
12 | GAGTCCACTTGGGTTCTAACCTGTTGCGTAG [GAGTCCACTAC_LTGcore_CT_RTGcore_CT] (site GAGTCCACTAC) (LTG core: CT, RTG core: CT) | 2.39
13 | GAGTCCACTTGGGTTCTAACCTGTTGCGTCC [GAGTCCACTAC_LTGcore_CT_RTGcore_GG] (site GAGTCCACTAC) (LTG core: CT, RTG core: GG) | 0.482
14 | GAGTCCACTTGGGTTCTAACCTGTTGCGTGA [GAGTCCACTAC_LTGcore_CT_RTGcore_TC] (site GAGTCCACTAC) (LTG core: CT, RTG core: TC) | 0.116
15 | GAGTCCACTTGGGTTCTAACCTGTTGCGTTT [GAGTCCACTAC_LTGcore_CT_RTGcore_AA] (site GAGTCCACTAC) (LTG core: CT, RTG core: AA) | 1.07
16 | GAGTCCTATTGGGTTCTAACCTGTTGCCTAG [GAGTCCTCTAG_LTGcore_AT_RTGcore_CT] (site GAGTCCTCTAG) (LTG core: AT, RTG core: CT) | 0.0701
17 | GAGTCCTATTGGGTTCTAACCTGTTGCCTAT [GAGTCCTCTAG_LTGcore_AT_RTGcore_AT] (site GAGTCCTCTAG) (LTG core: AT, RTG core: AT) | 0.0431
18 | GAGTCCTCGTGGGTTCTAACCTGTTGCCTAG [GAGTCCTCTAG_LTGcore_CG_RTGcore_CT] (site GAGTCCTCTAG) (LTG core: CG, RTG core: CT) | 0.274
19 | GAGTCCTCTTGGGTTCTAACCTGTTGCCTAT [GAGTCCTCTAG_LTGcore_CT_RTGcore_AT] (site GAGTCCTCTAG) (LTG core: CT, RTG core: AT) | 0.495
20 | GAGTCCTCTTGGGTTCTAACCTGTTGCCTGC [GAGTCCTCTAG_LTGcore_CT_RTGcore_GC] (site GAGTCCTCTAG) (LTG core: CT, RTG core: GC) | 0.293
21 | GAGTCCTCTTGGGTTCTAACCTGTTGCCTTT [GAGTCCTCTAG_LTGcore_CT_RTGcore_AA] (site GAGTCCTCTAG) (LTG core: CT, RTG core: AA) | 0.398
22 | GCGCGACAATGGGTTCTAACCTGTTGCTTAG [GCGCGACCTAA_LTGcore_AA_RTGcore_CT] (site GCGCGACCTAA) (LTG core: AA, RTG core: CT) | 0

Row | Sequence | recombinant barcode read abundance (log10)
23 | GCGCGACACTGGGTTCTAACCTGTTGCTTAG [GCGCGACCTAA_LTGcore_AC_RTGcore_CT] (site GCGCGACCTAA) (LTG core: AC, RTG core: CT) | 0.131
24 | GCGCGACCGTGGGTTCTAACCTGTTGCTTAG [GCGCGACCTAA_LTGcore_CG_RTGcore_CT] (site GCGCGACCTAA) (LTG core: CG, RTG core: CT) | 0.217
25 | GCGCGACCGTGGGTTCTAACCTGTTGCTTCG [GCGCGACCTAA_LTGcore_CG_RTGcore_CG] (site GCGCGACCTAA) (LTG core: CG, RTG core: CG) | 0.282
26 | GCGCGACCTTGGGTTCTAACCTGTTGCTTGG [GCGCGACCTAA_LTGcore_CT_RTGcore_CC] (site GCGCGACCTAA) (LTG core: CT, RTG core: CC) | 0
27 | GCGCGACCTTGGGTTCTAACCTGTTGCTTTA [GCGCGACCTAA_LTGcore_CT_RTGcore_TA] (site GCGCGACCTAA) (LTG core: CT, RTG core: TA) | 0.265
28 | GCGCGACCTTGGGTTCTAACCTGTTGCTTTG [GCGCGACCTAA_LTGcore_CT_RTGcore_CA] (site GCGCGACCTAA) (LTG core: CT, RTG core: CA) | 0.102
29 | GCGCGACGGTGGGTTCTAACCTGTTGCTTCC [GCGCGACCTAA_LTGcore_GG_RTGcore_GG] (site GCGCGACCTAA) (LTG core: GG, RTG core: GG) | 0.315
30 | GCGCGACGTTGGGTTCTAACCTGTTGCTTAG [GCGCGACCTAA_LTGcore_GT_RTGcore_CT] (site GCGCGACCTAA) (LTG core: GT, RTG core: CT) | 0.0314
31 | GCGCGACTATGGGTTCTAACCTGTTGCTTTA [GCGCGACCTAA_LTGcore_TA_RTGcore_TA] (site GCGCGACCTAA) (LTG core: TA, RTG core: TA) | 0.118
32 | GCGCGACTCTGGGTTCTAACCTGTTGCTTGA [GCGCGACCTAA_LTGcore_TC_RTGcore_TC] (site GCGCGACCTAA) (LTG core: TC, RTG core: TC) | 0.228
33 | GCGGGACAATGGGTTCTAACCTGTTGCCTAG [GCGGGACCTAG_LTGcore_AA_RTGcore_CT] (site GCGGGACCTAG) (LTG core: AA, RTG core: CT) | 0.227
34 | GCGGGACACTGGGTTCTAACCTGTTGCCTAG [GCGGGACCTAG_LTGcore_AC_RTGcore_CT] (site GCGGGACCTAG) (LTG core: AC, RTG core: CT) | 0.121
35 | GCGGGACATTGGGTTCTAACCTGTTGCCTAT [GCGGGACCTAG_LTGcore_AT_RTGcore_AT] (site GCGGGACCTAG) (LTG core: AT, RTG core: AT) | 0.11
36 | GCGGGACCTTGGGTTCTAACCTGTTGCCTCA [GCGGGACCTAG_LTGcore_CT_RTGcore_TG] (site GCGGGACCTAG) (LTG core: CT, RTG core: TG) | 0.682
37 | GCGGGACCTTGGGTTCTAACCTGTTGCCTGG [GCGGGACCTAG_LTGcore_CT_RTGcore_CC] (site GCGGGACCTAG) (LTG core: CT, RTG core: CC) | 0.0406
38 | GCGGGACGATGGGTTCTAACCTGTTGCCTTC [GCGGGACCTAG_LTGcore_GA_RTGcore_GA] (site GCGGGACCTAG) (LTG core: GA, RTG core: GA) | 0.2
39 | GCGGGACGGTGGGTTCTAACCTGTTGCCTAG [GCGGGACCTAG_LTGcore_GG_RTGcore_CT] (site GCGGGACCTAG) (LTG core: GG, RTG core: CT) | 0.14
40 | GCGGGACGTTGGGTTCTAACCTGTTGCCTAG [GCGGGACCTAG_LTGcore_GT_RTGcore_CT] (site GCGGGACCTAG) (LTG core: GT, RTG core: CT) | 0.0984
41 | GGACACCACTGGGTTCTAACCTGTTGCCTAG [GGACACCCTAG_LTGcore_AC_RTGcore_CT] (site GGACACCCTAG) (LTG core: AC, RTG core: CT) | 0.0688
42 | GGACACCCCTGGGTTCTAACCTGTTGCCTGG [GGACACCCTAG_LTGcore_CC_RTGcore_CC] (site GGACACCCTAG) (LTG core: CC, RTG core: CC) | 0.128
43 | GGACACCCTTGGGTTCTAACCTGTTGCCTCA [GGACACCCTAG_LTGcore_CT_RTGcore_TG] (site GGACACCCTAG) (LTG core: CT, RTG core: TG) | 0.858
